Test results from patent publication US4629781A, “Chemical process for preparing L 17392 (deglucoteicoplanin) and its salts” (Gruppo Lepetit S.p.A., priority 1983, dated 1986).
≈ marks a conversion by molar mass, not a printed value.

Assays:
S. aureus L 1526 = test: MIC against clinical isolate methicillin-resistant staphylococci; type: cell-based; design: unit not given here; conditions: S. aureus L 1526, clinical isolate methicillin-resistant
Experimental: (§1) The in vitro antibacterial activity of deglucoteicoplanin was determined using the two-fold dilution method in microtiter system. Todd-Hewitt broth (Difco) was used for streptococci and Isosensitest broth (Oxoid) for staphylococci and gram-negative bacteria. Overnight broth cultures were diluted so that the final inoculum was about 10^4 colony-forming units per ml (cfu/ml).

S. epidermidis 1378 = test: as above; type: cell-based; design: unit not given here; conditions: S. epidermidis 1378, clinical isolate methicillin-resistant
Experimental: as §1

S. epidermidis 1142 = test: as above; type: cell-based; design: unit not given here; conditions: S. epidermidis 1142, clinical isolate methicillin-resistant
Experimental: as §1

S. epidermidis 785 = test: as above; type: cell-based; design: unit not given here; conditions: S. epidermidis 785, clinical isolate methicillin-resistant
Experimental: as §1

S. epidermidis 1372 = test: as above; type: cell-based; design: unit not given here; conditions: S. epidermidis 1372, clinical isolate methicillin-resistant
Experimental: as §1

S. aureus L 1524 = test: as above; type: cell-based; design: unit not given here; conditions: S. aureus L 1524, clinical isolate methicillin-resistant
Experimental: as §1

S. epidermidis 835 = test: as above; type: cell-based; design: unit not given here; conditions: S. epidermidis 835, clinical isolate methicillin-resistant
Experimental: as §1

S. aureus L 1097 = test: as above; type: cell-based; design: unit not given here; conditions: S. aureus L 1097, clinical isolate methicillin-resistant
Experimental: as §1

S. aureus L 1096 = test: as above; type: cell-based; design: unit not given here; conditions: S. aureus L 1096, clinical isolate methicillin-resistant
Experimental: as §1

[1] = system: staphylococci (S. aureus, S. epidermidis); test: In vitro antibacterial activity against staphylococci (summary); type: cell-based; conditions: in words
Experimental: as §1

S. pyogenes = test: Experimental infection in mice infected with S. pyogenes; type: in vivo; conditions: subcutaneous administration
[2] = system: Staphylococcus epidermidis ATCC 12228; test: In vitro antibacterial activity, two-fold dilution method in microtiter system (MIC); type: cell-based
Experimental: as §1

[3] = system: Streptococcus pneumoniae UC 41; test: as above; type: cell-based
Experimental: as §1

[4] = system: Escherichia coli SKF 12140; test: as above; type: cell-based
Experimental: as §1

[5] = system: Proteus vulgaris X 19 H ATCC 881; test: as above; type: cell-based
Experimental: as §1

[6] = system: Pseudomonas aeruginosa ATCC 10145; test: as above; type: cell-based
Experimental: as §1

[7] = system: Streptococcus faecalis ATCC 7080; test: as above; type: cell-based
Experimental: as §1

[8] = system: Staphylococcus aureus ATCC 6538; test: as above; type: cell-based; conditions: inoculum about 10^4 cfu/ml, 18-24 hours at 37° C.
Experimental: as §1

[9] = system: Streptococcus pyogenes C 203 SFK 13400; test: as above; type: cell-based
Experimental: as §1

[10] = system: clinical isolate methicillin-resistant staphylococci (S. aureus, S. epidermidis); test: In vitro antibacterial activity against methicillin-resistant staphylococci (summary); type: cell-based; conditions: in words
Experimental: as §1

Solubility = type: physicochemical
[11] = system: Staphylococcus aureus Tour; test: In vitro antibacterial activity, two-fold dilution method in microtiter system (MIC); type: cell-based
Experimental: The in vitro antibacterial activity of deglucoteicoplanin was determined using the two-fold dilution method in microtiter system. Todd-Hewitt broth (Difco) was used for streptococci and Isosensitest broth (Oxoid) for staphylococci and gram-negative bacteria. […]

[12] = Potentiometric titration profile; type: physicochemical; conditions: methylcellosolve/water 4:1, titration with 0.01N NaOH after excess of 0.01N HCl

For `N[C@H]1C(=O)N[C@@H]2Cc3ccc(c(Cl)c3)Oc3cc4cc(c3O)Oc3ccc(cc3Cl)[C@@H](O)[C@@H]3NC(=O)[C@H](NC(=O)[C@@H]4NC(=O)[C@@H](NC2=O)c2cc(O)cc(c2)Oc2cc1ccc2O)c1ccc(O)c(c1)-c1c(O)cc(O)cc1[C@@H](C(=O)O)NC3=O` [deglucoteicoplanin], the MIC (S. aureus L 1526) was 0.05, the MIC (S. epidermidis 1378) was 0.05 and the MIC (S. epidermidis 1142) was 0.05. For the same compound, the MIC (S. epidermidis 785) was 0.05, the MIC (S. epidermidis 1372) was 0.2 and the MIC (S. aureus L 1524) was 0.1. For the same compound, the MIC (S. epidermidis 835) was 0.05, the MIC (S. aureus L 1097) was 0.05 and the MIC (S. aureus L 1096) was 0.05. The “activity against staphylococci (S. aureus, S. epidermidis)” value [1] was “very active”, the ED50 (S. pyogenes) was 0.95 mg/kg and the MIC [2] was 0.0125 µg/mL (≈ 0.0104 µM). For the same compound, the MIC [3] was 0.05 µg/mL (≈ 0.0417 µM), the MIC [4] was 25 µg/mL (≈ 20.9 µM) and the MIC [5] was 50 µg/mL (≈ 41.7 µM). The MIC [6] was greater than 100 µg/mL, the MIC [7] was 0.1 µg/mL (≈ 0.0834 µM) and the MIC [8] was 0.025 µg/mL (≈ 0.0209 µM). The MIC [9] was 0.05 µg/mL (≈ 0.0417 µM), the “activity against clinical isolate methicillin-resistant staphylococci” value [10] was “very effective” and the solubility (Solubility; in ethyl alcohol and dimethylformamide) was “slightly soluble”. For the same compound, the solubility (Solubility; in water at a pH higher than 9 and aqueous methanol, ethanol and acetone) was “soluble”, the MIC ([11]; Inoculum: 10^6 cfu/ml) was 0.2 µg/mL (≈ 0.167 µM) and the MIC ([11]; in the presence of 30% bovine serum) was 0.2 µg/mL. It also gave an MIC ([11]; inoculum about 10^4 cfu/ml) of 0.05 µg/mL (≈ 0.0417 µM).

For `CC(=O)N[C@@H]1[C@@H](O[C@H]2c3ccc(c(Cl)c3)Oc3cc4cc(c3O)Oc3ccc(cc3Cl)C[C@@H]3NC(=O)[C@@H](N)c5ccc(O)c(c5)Oc5cc(O)cc(c5)[C@@H](NC3=O)C(=O)N[C@@H]4C(=O)N[C@@H]3C(=O)N[C@H]2C(=O)N[C@@H](C(=O)O)c2cc(O)cc(O)c2-c2cc3ccc2O)O[C@@H](CO)[C@H](O)[C@H]1O` (stereo in doubt) [antibiotic L 17046], the “pH1/2 value, third titration slope” value ([12]; five equivalents) was 11, the “pH1/2 value, first titration slope” value ([12]; one equivalent) was 5.0 and the “pH1/2 value, second titration slope” value ([12]; one equivalent) was 7.0. The solubility (Solubility; in methanol) was “slightly soluble”, the solubility (Solubility; in n-hexane, ethyl ether and acetone) was “almost insoluble” and the solubility (Solubility; in water at pH>8.0, in dimethylformamide, dimethylsulfoxide, propyleneglycol and methylcellosolve) was “freely soluble”.
